Results as given in the METLIN SMRT retention time set (Domingo-Almenara et al. 2019).

Assay: gradient 5% acetonitrile 3 min, to 50% in 2 min, to 85% in 15 min, held 3 min, 100 µL/min
Conditions: column: Zorbax Extend-C18 2.1 x 50 mm; eluents: water / acetonitrile, 0.1% formic acid
Method in brief: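 Data were gathered over 3 months by HPLC coupled to a quadrupole time-of-flight mass spectrometer, operated in positive and negative ionization mode. Mixtures of ~100 pure standards ran on a Zorbax Extend-C18 column (2.1 × 50 mm, 1.8 μm) at 100 μL/min, with water and acetonitrile each containing 0.1% formic acid and dead and dwell volumes of 40 μL and 900 μL. Retention time was read from adduct peaks picked by computer and checked manually.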

RP-LC retention time | Structure (SMILES)
952 s | CC(C)(C)c1noc(-c2ccnc(-n3cnc(C(=O)N4CCSCC4)c3)c2)n1
1220 s | CCOc1ccc(-n2cc(C(=O)OC(C)C)c3ccccc3c2=O)cc1
779 s | O=S(=O)(c1ccc2c(c1)CCC2)N1CCCC1c1noc(CO)n1 (stereo not drawn)
583 s | CCN1CCN(CCNC(=O)Cn2c(=O)n(-c3ccc(F)cc3)c3ncccc32)CC1
1000 s | COc1ccc(C2=NN(C(=O)c3ccccc3)C(c3cccc([N+](=O)[O-])c3)C2)cc1 (stereo not drawn)
822 s | Cc1oc(-c2ccc(NC(=O)c3ccc4c(c3)OCO4)cc2)nc1Cn1cccn1
665 s | CCn1c(N2CCCC(C(=O)NCCCOC)C2)cc(=O)n(C)c1=O (stereo not drawn)
1010 s | COc1ccc(-c2nnc(-c3ccc(C)c(S(=O)(=O)NC4CCCC4)c3)o2)cc1OC
927 s | O=C(O)c1cc2nc(-c3ccc(Cl)cc3)cc(C(F)(F)F)n2n1
744 s | O=C(O)c1nnn(-c2cccc(F)c2)c1C(F)(F)F
594 s | CC(C)CNC(=O)N1CCC(CCOc2ccncc2)CC1
601 s | CC(C)CNC(=O)Cn1c(C(C)C)nc2ccccc21
698 s | O=C(c1ccoc1)N1CCN(c2cc(-c3ccccc3)[nH]n2)CC1
987 s | CCc1ccccc1NC(=O)N1CCCC1c1nc(-c2ccccc2)no1 (stereo not drawn)
721 s | O=C(COc1ccccc1F)NCC1CN(c2ccc3c(c2)OCO3)C(=O)O1 (stereo not drawn)
939 s | O=C(CCC1CCCN(C(=O)Nc2ccc(Cl)cc2)C1)NCc1ccccc1Cl (stereo not drawn)
870 s | Cc1ccc(S(=O)(=O)N2CCC(c3nc(C(=O)N4CCOCC4)c(C)o3)CC2)cc1C
1190 s | CCCCOC(=O)CSc1nnc(-c2ccc(Br)cc2)o1
573 s | CN(C)C(=O)c1ccc2c(c1)N(CC(=O)N1CCN(c3ccccn3)CC1)C(=O)CS2
876 s | Cc1ccc(N2CC(c3nc(-c4ccc5c(c4)nc(C)c(=O)n5C)no3)CC2=O)cc1C (stereo not drawn)
916 s | Cc1c(Cl)cccc1Nc1c(-c2ccc(N3CCOCC3)cc2)nc2cnccn12
941 s | Cc1nn2c(CNS(=O)(=O)c3cc(C)c(C)cc3C)c(-c3ccccc3)nc2s1
928 s | CCOc1ccc(NC(=O)CSc2nccc(N3CCN(c4cc(C)ccc4C)CC3)n2)cc1

RP-LC retention time | Structure (SMILES)
789 s | Cc1ccc(S(=O)(=O)N2CCC(c3cc(N)on3)CC2)cc1
725 s | CN(C)CC1CN(C(=O)c2c[nH]c3ccccc23)CC12CCOCC2 (stereo not drawn)
574 s | CCCN1CCN(CCCNC(=O)c2sc3ncccc3c2-n2cccc2)CC1
947 s | COc1cccc(Cn2cnc3c(-c4ccc(OC)c(OC)c4)csc3c2=O)c1
1050 s | O=C(NCc1cc(F)cc(F)c1)C1CCCN(c2nc3ccsc3c(=O)n2Cc2ccccc2)C1 (stereo not drawn)
938 s | O=C1CCC(CCNS(=O)(=O)c2ccc3c(c2)CCCC3)CCN1CC1CC1 (stereo not drawn)
742 s | CC(C)(C)c1noc(-c2ccc(-n3cnc(C(=O)N4CCCCC4)c3)nc2)n1
961 s | Cc1ccc(-c2ncc(NC(=O)CC(C)C)cn2)cc1
577 s | CCOC(=O)c1[nH]c(C)c(CCC(=O)N2CCC(C(=O)NCCN3CCN(CC)CC3)CC2)c1C
546 s | c1cc(CN2CCC(Oc3nccnc3N3CCOCC3)C2)ccn1 (stereo not drawn)
920 s | COc1cc(-c2noc(Cn3cnc4c(cnn4-c4ccccc4)c3=O)n2)cc(OC)c1OC
1340 s | Cc1ccc(-c2csc(Nc3ccc(Br)cn3)n2)cc1C
1010 s | CC(C)c1noc(C2(NC(=O)c3ccc(F)cc3)CCCCC2)n1
918 s | CC(C)NC(=O)c1ccc(C(C)C)cc1
669 s | O=C1CCC2(CCN1)CCN(C(=O)C1CCCCC1)CC2
902 s | Cc1cc2nc(C)c(=O)n(CCC(=O)NCCc3c[nH]c4ccc(Cl)cc34)c2cc1C
731 s | CC(=O)Nc1nsc(N2CCC(C(=O)N3CCN(c4cccc(Cl)c4)CC3)CC2)n1
630 s | O=C1CC(NS(=O)(=O)c2ccc(Br)s2)CN1 (stereo not drawn)
691 s | COCc1nc(CCNC(=O)NC2CCCCC2)no1
613 s | O=C(c1ccc(F)cc1)N1CCN(c2nnc3ccccn23)CC1
602 s | O=C(NC1CCCC1)N1CCCCC1c1nncn1-c1ccccc1 (stereo not drawn)
533 s | CC(=O)N1CCN(S(=O)(=O)c2cccc(C(=O)NCc3cccnc3)c2)CC1
625 s | CCN1CCC(CCNC(=O)C2CN(C(=O)c3cccs3)CC23CCCCC3)CC1 (stereo not drawn)

RP-LC retention time | Structure (SMILES)
918 s | CCCS(=O)(=O)NCc1ccc2c(c1)CCN2C(=O)c1ccc(Cl)cc1
1040 s | CC(=O)c1ccc(NC(=O)Cn2c(-c3ccc(Cl)cc3)nc(C)cc2=O)cc1
624 s | CSc1ccc(NC(=O)c2cn3c(n2)CCCC3)cc1
633 s | CCCn1c(CN2CCOCC2)nc2cc(NC(=O)CC(C)C)ccc21
815 s | Cc1ccc(NC(=O)N2CCC(n3c(-c4ccco4)nc4cccnc43)C2)cc1F (stereo not drawn)
1100 s | Cc1ccc(NC(=O)N2CCCC2c2nc(-c3ccccc3)no2)c(Cl)c1 (stereo not drawn)
1400 s | Cc1cccc(-c2noc(-c3cccnc3N3CCN(c4ccccc4)CC3)n2)c1
648 s | O=C(NC1CCCC1)C1CCCN(c2nnc3ccc(Cl)cn23)C1 (stereo not drawn)
932 s | O=C(C1Cc2ccccc2CN1S(=O)(=O)c1cccs1)N1CCCCCC1 (stereo not drawn)
821 s | Cc1ccc(NS(=O)(=O)c2cc(-c3[nH]ncc3C(=O)N3CCCCC3)oc2C)cc1C
1170 s | CCc1nc2cc(-c3noc(COc4ccc(Cl)cc4)n3)ccc2o1
590 s | O=C(Nc1nccnc1C(=O)NCc1ccncc1)c1ccccc1
802 s | O=C(CC1CCN(C(=O)c2cc3cc(Cl)ccc3[nH]2)CC1)NCc1ccco1
680 s | Cc1oc(CNC(=O)Nc2ccccc2Cl)nc1C(=O)N1CCCC1
685 s | COC(=O)[C@@H]1Cc2c([nH]c3ccccc23)C(c2ccccc2C)N1 (stereo partly drawn)
737 s | Cn1ccc2ccn(CC(=O)Nc3ccccc3)c(=O)c21
908 s | O=c1ccc(-c2ccc3c(c2)OCO3)nn1CCc1nc(-c2ccccc2)no1
771 s | COc1ccccc1C1(CNC(=O)NC2CCCCC2)CCOCC1
697 s | O=C1COc2ccc(S(=O)(=O)N3CCC(C(=O)NCc4ccco4)CC3)cc2N1
904 s | CCOC(=O)C1CCN(c2cc3c(cc2NC(=O)c2ccco2)n(C)c(=O)n3C)CC1
876 s | COC(=O)c1c(NC2CCCCC2)c2cccc(Cl)c2[nH]c1=O

Structure (SMILES) | RP-LC retention time
CC(C)CN1Cc2ccccc2-n2ccnc2C12CCN(C(=O)c1ccco1)CC2 | 654 s
